Experimental data reported in patent US6573269B1, “Pyrimidine-2,4,6-trione light screening compositions” (Roche Vitamins Inc., priority 1999, dated 2003).

Experiments:
Assay type in all cases: physicochemical
[1] = UV absorption (UV-A filter property); conditions: for UV extinction (ε) at absorption maximum: value in brackets after the UV maximum
From the text: The compounds of formula I have adsorption maxima in the range of 320 nm to 400 nm, the so called UV-A radiation.

[2] = Measurement of solubility in cosmetic solvents Cétiol LC and Crodamol DA; conditions: oversaturated solution, overnight at 25° C., filtered, UV measurement in CH2Cl2
Experimental: e) Measurement of solubility in Cétiol LC (cocoyl caprylate caprate) and Crodamol DA (diisopropyl adipate).
After standing overnight at 25° C., the solution was filtered through a microfilter (Millipore, pore size 0.5 , μm), followed by UV measurement in CH2Cl2. The extinctions were compared with the extinctions of the pure compound.

[3] = Photostability: irradiation in high dilution with a Hg-lamp (150 W from Hereus); conditions: irradiated in high dilution with a Hg-lamp (150 W)
Experimental: A 100 ml three necked reaction flask equipped with a thermometer, a reflux condenser, and a magnetic stirrer under nitrogen atmosphere was charged with 1.1 g (5 mmol) of 4-(2-ethyl-hexyloxy)-phenylamine (Example 1b), 1.06 g (5 mmol) of 1,3-diisopropyl-pyrimidine-2,4,6-trione (Example 1c) and 11.1 g (75 mmol) of triethyl orthoformate in 10 ml of tetrahydrofuran. This mixture was refluxed for 18 hours followed by washing twice with water, dried with Na2SO4, and concentrated on a rotary evaporator. The raw product was recrystallized in ethanol to yield 0.84 g of yellowish crystals. M.p. 74-76° C., UV 355 nm (32,122).

## CCCCCCCC(=O)Oc1ccc(NC=C2C(=O)N(C(C)C)C(=O)N(C(C)C)C2=O)c(O)c1 [5-{[(2-hydroxy-4-capryloxy)-phenylamine])-methylene}-1,3-diisopropyl-pyrimidine-2,4,6-trione]
[1]
  UV absorption maximum: 354 nm
  UV extinction (ε) at absorption maximum: 25,813

## CCCCC(CC)COc1ccc(NC=C2C(=O)N(C(C)C)C(=O)N(C(C)C)C2=O)cc1 (stereo not shown) [Example 1, 5-{[4-(2-Ethyl-hexyloxy)-phenylamine]-methylene}-1,3-diisopropyl-pyrimidine-2,4,6-trione]
[1]
  UV absorption maximum: 355 nm
  UV extinction (ε) at absorption maximum: 32,122
[2]
  solubility in Crodamol DA (diisopropyl adipate): 26.9%
  solubility in Cétiol LC (cocoyl caprylate caprate): 15.5%
[3]
  photostability: photostable

## C#CCOc1ccc(NC=C2C(=O)N(C(C)C)C(=O)N(C(C)C)C2=O)cc1 [Example 2, 5-{(4-Propargyloxy-phenylamine)-methylene}-1,3-diisopropyl-pyrimidine-2,4,6-trione]
[1]
  UV absorption maximum: 352 nm
  UV extinction (ε) at absorption maximum: 31,596
[3]
  photostability: photostable

## C=C(COc1ccc(NC=C2C(=O)N(C(C)C)C(=O)N(C(C)C)C2=O)cc1)[Si](C)(O[Si](C)(C)C)O[Si](C)(C)C [Example 3, 5-{[4-(2-(1,3,3,3-tetramethyl-1-[(trimethylsilyl)-oxy]-disiloxanyl)-prop-2-enyloxy)-phenylamine]-methylene}-1,3-diisopropyl-pyrimidine-2,4,6-trione]
[1]
  UV absorption maximum: 354 nm
  UV extinction (ε) at absorption maximum: 31,520
[2]
  solubility in Crodamol DA (diisopropyl adipate): unlimited
  solubility in Cétiol LC (cocoyl caprylate caprate): unlimited
[3]
  photostability: excellent

## CC(C)N1C(=O)C(=CNc2ccc(O)cc2)C(=O)N(C(C)C)C1=O [Example 6, 5-{(4-Hydroxy-phenylamine)-methylene}-1,3-diisopropyl-pyrimidine-2,4,6-trione]
[1]
  UV absorption maximum: 351 nm
  UV extinction (ε) at absorption maximum: 27,911
[2]
  solubility in Crodamol DA (diisopropyl adipate): 3.6%
[3]
  photostability: photostable

## CC(C)N1C(=O)C(=CNc2ccc(O)cc2O)C(=O)N(C(C)C)C1=O [Example 7, 5-{(2,4-Dihydroxy-phenylamine)-methylene}-1,3-diisopropyl-pyrimidine-2,4,6-trione]
[1]
  UV absorption maximum: 363 nm
  UV extinction (ε) at absorption maximum: 23,564
[2]
  solubility in Crodamol DA (diisopropyl adipate): 4.1%
[3]
  photostability: photostable

## CCCCCCCC(=O)Oc1ccc(NC=C2C(=O)N(C(C)C)C(=O)N(C(C)C)C2=O)cc1 [Example 8, 5-{(4-Capryloxy-phenylamine)-methylene}-1,3-diisopropyl-pyrimidine-2,4,6-trione]
[1]
  UV absorption maximum: 346 nm
  UV extinction (ε) at absorption maximum: 33,768
[2]
  solubility in Crodamol DA (diisopropyl adipate): 18.5%
  solubility in Cétiol LC (cocoyl caprylate caprate): 6.6%
[3]
  photostability: photostable

## CCCCCCCC(=O)Oc1ccc(NC=C2C(=O)N(C(C)C)C(=O)N(C(C)C)C2=O)c(OC(=O)CCCCCCC)c1 [Example 9 diester]
[1]
  UV absorption maximum: 351 nm
  UV extinction (ε) at absorption maximum: 31,349
[2]
  solubility in Cétiol LC (cocoyl caprylate caprate): easily mixable with Cétiiol LC in any proportion
